Results: ChEMBL document CHEMBL1150655, “Tupuseleiamides and basiliskamides, new acyldipeptides and antifungal polyketides produced in culture by a Bacillus laterosporus isolate obtained from a tropical marine habitat” (J Nat Prod, 2002)
≈ marks a conversion by molar mass, not a printed value.

Columns and labels:
[1] = Cytotoxicity against human diploid fibroblast cells assessed as cytopathic effect at 12.5 ug/ml; assay type: cell-based
[2] = Cytotoxicity against human diploid fibroblast cells at 100 ug/ml; assay type: cell-based
Aspergillus fumigatus = experiment: Antimicrobial activity against Aspergillus fumigatus by standard agar dilution method; assay type: functional
Candida albicans = experiment: Antimicrobial activity against Candida albicans by standard agar dilution method; assay type: functional

| MIC (Aspergillus fumigatus) | MIC (Candida albicans) | SMILES | Activity [1] | Activity [2] |
| --- | --- | --- | --- | --- |
|  |  | C[C@@H]1[C@H](O)[C@@H](C)/C=C/C=C/C=C/C=C/C=C/C=C/C=C/[C@H](O[C@@H]2O[C@H](C)[C@@H](O)[C@H](N)[C@@H]2O)C[C@@H]2O[C@](O)(C[C@@H](O)C[C@@H](O)[C@H](O)CC[C@@H](O)C[C@@H](O)CC(=O)O[C@H]1C)C[C@H](O)[C@H]2C(=O)O [AMPHOTERICIN B] | Toxic | Toxic |
| 2.5 µg/mL (≈ 6.49 µM) | 1 µg/mL (≈ 2.59 µM) | CC[C@@H](C)[C@H](OC(=O)/C=C/c1ccccc1)[C@H](C)[C@H](O)C/C=C/C=C\C(N)=O [BASILISKAMIDE A] |  |  |
| 5 µg/mL (≈ 13 µM) | 3.1 µg/mL (≈ 8.04 µM) | CC[C@@H](C)[C@H](O)[C@H](C)[C@@H](C/C=C/C=C\C(N)=O)OC(=O)/C=C/c1ccccc1 [BASILISKAMIDE B] |  |  |
